Drawing on PubChem BioAssay AID276 (DTP/NCI, 2004), this text covers T/C for 21 compounds.

Several values for one entry are separate records, joined by “and”; a condition that tells them apart may be missing. Equal entries are not always repeated. Inconclusive results and toxic doses are left out.

For this assay, the system named is B6C3F1 mice, Lewis lung carcinoma iv, survival T/C. The experiment in a line: NCI In Vivo Anticancer Drug Screen. Data for tumor model Lewis Lung Carcinoma (intravenous) in B6C3F1 mice. The note with it: endpoint: median survival time, schedule: Q01DX009 (ip), higher = longer survival. The method, boiled down: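 Mice carrying transplanted tumors received test compound; survival in the treated group was divided by that of the vehicle-treated control group to give the T/C value.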

Setting [1] is: dose: 6.25 mg/kg/injection, vehicle: saline with Tween-80.
Where [2] appears, read: dose: 12.5 mg/kg/injection, vehicle: saline with Tween-80.
Setting [3] is: dose: 25.0 mg/kg/injection, vehicle: saline.
[4] abbreviates: dose: 50.0 mg/kg/injection, vehicle: saline.
Where [5] appears, read: dose: 100.0 mg/kg/injection, vehicle: saline.
Setting [6] is: dose: 200.0 mg/kg/injection, vehicle: saline.
The mark [7] stands for this setting: dose: 1.0 mg/kg/injection, vehicle: saline.
The mark [8] stands for this setting: dose: 6.25 mg/kg/injection, vehicle: Klucel (hydroxypropylcellulose) (HPC).
Where [9] appears, read: dose: 12.5 mg/kg/injection, vehicle: Klucel (hydroxypropylcellulose) (HPC).
The mark [10] stands for this setting: dose: 25.0 mg/kg/injection, vehicle: Klucel (hydroxypropylcellulose) (HPC).
Setting [11] is: dose: 50.0 mg/kg/injection, vehicle: Klucel (hydroxypropylcellulose) (HPC).
Setting [12] is: dose: 25.0 mg/kg/injection, vehicle: saline with Tween-80.
[13] abbreviates: dose: 50.0 mg/kg/injection, vehicle: saline with Tween-80.
The mark [14] stands for this setting: dose: 100.0 mg/kg/injection, vehicle: saline with Tween-80.
Setting [15] is: dose: 3.12 mg/kg/injection, vehicle: saline with Tween-80.
Setting [16] is: dose: 200.0 mg/kg/injection, vehicle: saline with Tween-80.

For the compound `O=NN(CCCl)C(=O)NC1[C@H](O)CCC[C@@H]1O` (stereo partly drawn), the T/C by setting is: (dose: 0.32 mg/kg/injection, vehicle: saline) 96 % of control; (dose: 0.63 mg/kg/injection, vehicle: saline) 111 % of control; (dose: 1.25 mg/kg/injection, vehicle: saline) 103 % of control and 116 % of control; (dose: 5.0 mg/kg/injection, vehicle: saline) 163 % of control and 173 % of control; (dose: 10.0 mg/kg/injection, vehicle: saline) 98 % of control and 118 % of control.

In the case of `c1ccc2c(c1)-c1ccccc1C1NC21` (stereo not drawn), the T/C runs as follows: under setting [1], 100 % of control; under setting [2], 106 % of control.

As for `COc1ccc(OC)c(Cc2cnc3nc(N)nc(N)c3c2C)c1`, the T/C (dose: 6.25 mg/kg/injection, vehicle: water) is 104 % of control; the T/C (dose: 12.5 mg/kg/injection, vehicle: water) was 112 % of control; the T/C (dose: 25.0 mg/kg/injection, vehicle: water) was 100 % of control; the T/C (dose: 50.0 mg/kg/injection, vehicle: water) is 92 % of control.

`c1csc(C[N+]23CN4CN(CN(C4)C2)C3)c1`: the T/C (dose: 12.0 mg/kg/injection, vehicle: saline) is 100 % of control; the T/C under setting [3] is 101 % of control; the T/C under setting [4] is 96 % of control; the T/C under setting [5] was 96 % of control; the T/C under setting [6] was 110 % of control.

With `COc1cccc2c1C(=O)c1c(O)c3c(c(O)c1C2=O)C[C@@](O)(C(C)=O)C[C@@H]3OC1CC(N)C(O)C(C)O1` (stereo partly drawn), the T/C by setting is: (dose: 0.25 mg/kg/injection, vehicle: saline) 86 % of control; (dose: 0.5 mg/kg/injection, vehicle: saline) 123 % of control; under setting [7], 112 % of control.

As for `CCN(C)N=Nc1ccc(C(N)=O)cc1`, the T/C was 95 % of control under setting [8], 104 % of control under setting [9], 111 % of control under setting [10] and 122 % of control under setting [11].

For the compound `Nc1nncs1`, the T/C is 106 % of control (dose: 15.19 mg/kg/injection, vehicle: Klucel (hydroxypropylcellulose) (HPC)); 100 % of control (dose: 20.25 mg/kg/injection, vehicle: Klucel (hydroxypropylcellulose) (HPC)); 113 % of control (dose: 27.0 mg/kg/injection, vehicle: Klucel (hydroxypropylcellulose) (HPC)); 103 % of control and 116 % of control (dose: 36.0 mg/kg/injection, vehicle: Klucel (hydroxypropylcellulose) (HPC)); 103 % of control (dose: 48.0 mg/kg/injection, vehicle: Klucel (hydroxypropylcellulose) (HPC)).

Turning to `O=[N+]([O-])c1ccc(N2CCOCC2)c2c1no[n+]2[O-]`, the T/C runs as follows: under setting [1], 118 % of control; under setting [2], 102 % of control; under setting [12], 111 % of control; under setting [13], 111 % of control; under setting [14], 98 % of control.

On to `c1cc2n(n1)CCN2`, for which the T/C is 107 % of control under setting [3], 97 % of control under setting [4] and 97 % of control under setting [5].

Take `Cc1oc2c(C)c3oc(=O)cc(C)c3cc2c1CCl`: the T/C is 103 % of control under setting [2] and 101 % of control under setting [12].

For `COc1ccc(S(=O)(=O)N=N/C=C2\C=CC=CN2O)cc1OC`, the T/C reads like this: under setting [15], 92 % of control; under setting [1], 100 % of control; under setting [2], 98 % of control; under setting [12], 93 % of control; under setting [13], 106 % of control.

`N=c1ccn2c(n1)OC1C(O)C(CO)OC12` (stereo not drawn): the T/C was 101 % of control under setting [3], 102 % of control under setting [4] and 107 % of control under setting [5].

`COc1cc2c[n+](C)c3c(c2cc1OC)Cc1cc2c(cc1-3)OCO2`: the T/C is 97 % of control (dose: 12.5 mg/kg/injection, vehicle: suspension in saline); 114 % of control (dose: 25.0 mg/kg/injection, vehicle: suspension in saline); 119 % of control (dose: 50.0 mg/kg/injection, vehicle: suspension in saline).

In the case of `NC(CSC(c1ccccc1)(c1ccccc1)c1ccccc1)C(=O)O` (stereo not drawn), the T/C is, setting by setting: (dose: 3.12 mg/kg/injection, vehicle: Klucel (hydroxypropylcellulose) (HPC)) 116 % of control; under setting [8], 96 % of control; under setting [9], 111 % of control; under setting [10], 102 % of control; under setting [11], 107 % of control.

For `CC1CCC(n2cnc3c(Cl)ncnc32)O1` (stereo not drawn), the T/C under setting [9] is 91 % of control; the T/C under setting [10] was 107 % of control; the T/C under setting [11] is 107 % of control; the T/C (dose: 100.0 mg/kg/injection, vehicle: Klucel (hydroxypropylcellulose) (HPC)) is 108 % of control; the T/C (dose: 200.0 mg/kg/injection, vehicle: Klucel (hydroxypropylcellulose) (HPC)) was 113 % of control; the T/C (dose: 400.0 mg/kg/injection, vehicle: Klucel (hydroxypropylcellulose) (HPC)) was 108 % of control.

As to `Cc1c(N)nc(C(CC(N)=O)NCC(N)C(N)=O)nc1C(=O)NC(C(=O)NC(C)C(O)CC(=O)NC(C(=O)NC(OC1OC(C)C(N)C(O)C1O)C(O)c1nc(-c2nc(C(=O)NCCCC(N)CC(=O)NCCCNCCCCN)cs2)cs1)C(C)O)C(OC1OC(CO)C(O)C(O)C1OC1OC(CO)C(O)C(OC(N)=O)C1O)c1cnc[nH]1` (stereo not drawn), the T/C under setting [7] is 124 % of control and the T/C (dose: 2.0 mg/kg/injection, vehicle: saline) was 123 % of control.

For the compound `O=S1(=O)C=C(c2ccccc2)C(c2ccccc2)=C1`, the T/C is, setting by setting: under setting [15], 101 % of control; under setting [1], 89 % of control; under setting [2], 101 % of control; under setting [12], 110 % of control.

For `Cc1ccc2c(c1)N=C(Nc1ccccc1)N=S2(C)=O` (stereo not drawn), the T/C under setting [1] was 99 % of control; the T/C under setting [2] was 92 % of control; the T/C under setting [12] is 93 % of control; the T/C under setting [13] is 95 % of control; the T/C under setting [14] is 108 % of control; the T/C under setting [16] was 119 % of control.

Consider `C=CC(C)(C)n1cc(C2=C(O)C(=O)C(c3cn(C(C)(C)C=C)c4ccccc34)=C(O)C2=O)c2ccccc21`, for which the T/C is 105 % of control (dose: 1.25 mg/kg/injection, vehicle: Klucel (hydroxypropylcellulose) (HPC)); 110 % of control (dose: 2.5 mg/kg/injection, vehicle: Klucel (hydroxypropylcellulose) (HPC)); 106 % of control (dose: 5.0 mg/kg/injection, vehicle: Klucel (hydroxypropylcellulose) (HPC)); 100 % of control (dose: 10.0 mg/kg/injection, vehicle: Klucel (hydroxypropylcellulose) (HPC)); 114 % of control (dose: 20.0 mg/kg/injection, vehicle: Klucel (hydroxypropylcellulose) (HPC)); 119 % of control (dose: 40.0 mg/kg/injection, vehicle: Klucel (hydroxypropylcellulose) (HPC)).

As to `CC1=NN(c2cccc(S(=O)(=O)O)c2)C(=O)C1N=Nc1cc(Cl)cc(S(=O)(=O)O)c1O.CC1=NN(c2cccc(S(=O)(=O)O)c2)C(=O)C1N=Nc1cc(Cl)cc(S(=O)(=O)O)c1O.[Cr]` (stereo not drawn), the T/C runs as follows: under setting [3], 92 % of control; under setting [4], 100 % of control; under setting [5], 98 % of control; under setting [6], 98 % of control.

As for `COC1/C=C/O[C@@]2(C)Oc3c(C)c(O)c4c(O)c(cc(O)c4c3C2=O)NC(=O)/C(C)=C\C=C\[C@H](C)C(O)[C@@H](C)[C@@H](O)[C@@H](C)[C@H](OC(C)=O)[C@@H]1C` (stereo partly drawn), the T/C runs as follows: under setting [2], 109 % of control; under setting [12], 106 % of control; under setting [13], 105 % of control; under setting [14], 101 % of control; under setting [16], 101 % of control; (dose: 400.0 mg/kg/injection, vehicle: saline with Tween-80) 100 % of control.
